According to patent publication US10815237B2, “Antimicrobials and methods of making and using same” (BIOVERSYS AG, priority 2016, dated 2020):

Columns and labels:
[1] = system: Chinese hamster ovary (CHO) cells; assay: cytotoxicity against CHO cell line (Cell Titer Blue); type: cell-based; details: Cricetulus griseus, 24 h, CHO-K1 cells, 24 hours incubation, percent cell kill
Method: The compounds of the present disclosure were tested for cytotoxicity against Chinese hamster ovary (CHO) cells.
The assay was performed by seeding CHO—K1 in F12K medium containing 13.33% Fetal Bovine Serum […]. 37.5 μl of cell suspension at a concentration of 9,500 cells/well was plated into each column of a 384-well black clear bottom assay plate with the exception of a negative (no cell) control column, and allowed to adhere for 2 hours. The culture media was then removed from the 175 cm^2 flask(s) and the cell monolayer washed with 10 mL of Phosphate Buffered Saline PBS. 3 mL of Cellstripper™ was then added and the flask was incubated for approximately 5 min at 37° C. The cells were dissociated by agitation and 7 mL of F 12K medium containing 10% FBS was added to the flask. A homogeneous cell suspension was obtained by trituration of the flask. The cells were counted with a hemocytometer by diluting an aliquot of the cell suspension in PBS with 0.4% trypan blue. Typically, a ratio of 100 μl cell suspension to 1800 μl PBS to 100 μl trypan blue was used.
The volume of cell suspension containing the number of cells needed to seed the plate(s) (15.2 mL containing 3.8×10^6 cells) was calculated and transferred to a 50 mL centrifuge tube with the appropriate volume of media. 37.5 μl of cells were added to each well of the 384 well plate except for the negative (no cell) control column. A cytotoxicity 100-fold dilution plate was then prepared by manually pipetting 18 μl of 100% DMSO into two columns of an empty low volume dilution plate. 2 μl of a 50 mM solution of compounds 1-23 from the translation plate were manually pipetted into the corresponding columns of the 100-fold dilution plate. 10 μl of 100% DMSO was manually pipetted into all remaining columns of the 100-fold plate.
A 4-fold cytotoxicity plate was prepared beforehand by manually pipetting 48 μl of F12K media (without DMSO and without FBS) into each well of a matrix 384 well plate. The test samples in the 100-fold dilution plate were mixed and diluted. Ten 2-fold dilutions were performed for each compound in duplicate. The 384 cannula array then transferred 2 μl to the 48 μl of media in the cytotoxicity 4-fold dilution plate. The array was then mixed and 12.5 μl of samples from the cytotoxicity 4-fold dilution plate were transferred to the 37.5 μl of cells and media. The final top concentration of samples at this point in the procedure was 50 μM with 10 subsequent 1:2 dilutions down to […]. The final DMSO concentration were 1% and the final concentration of FBS was 10%.
Cycloheximide was run as a control. Specifically, Cycloheximide was diluted to 0.1 mM from 100 mM stock […] and was added to the cytotoxicity 100-fold plate. Upon addition to the cell plate, a range of 1 μM to 1 nM of cycloheximide was run.
A column separate from the one (referred to above) that served as the negative control was used for cell control wells to which only media was added.
The plates were then incubated for 24 hours at 37° C. and 5% CO2. […] The two columns used earlier to prepare the 100-fold dilution plate by pipetting 18 μl of 100% DMSO contained the samples tested at 200 μM. After the 24 hour incubation period, the 4 μl of Cell Titer blue was added to each well using a Multichannel Matrix pipettor. The plates were returned to the incubator and incubated for an additional 5 hours. Fluorescence (530 nm excitation wavelength/590 nm emission wavelength) was measured on a Wallac Victor microplate reader.
Cell viability was assessed fluorometrically after a 5 hour incubation with resazurin (Cell Titer Blue™), which is reduced by living cells to the fluorescent resorufin.
The average fluorescence for the negative control was determined to obtain the average blank fluorescence. The average blank fluorescence was subtracted from the fluorescence values obtained for all the test agents. The resulting values are the corrected fluorescence. […]

[2] = system: Staphylococcus aureus (S. aureus) 11540 strain; assay: standard microdilution MIC, S. aureus; type: cell-based; details: Staphylococcus aureus
Method: (§1) The in vitro activity of the compounds of the present disclosure can be determined. Antimicrobial testing is typically performed to determine the minimum inhibitory concentration (MIC). Minimum inhibitory concentrations (MICs) are determined by the microdilution method in a final volume of 100 μl according to protocols outlined by The Clinical and Laboratory Standards Institute (CLSI). Performance standards for reference strains are assessed within the same experimental design to maintain quality control. See, for example, Clinical Laboratory Standards Institute: Methods for dilution antimicrobial susceptibility tests for bacteria that grow aerobically M7-A8. Approved Standard-Eighth Edition. Wayne, Pa.: CLSI; December 2008; and Clinical Laboratory Standards Institute: Performance Standards for Antimicrobial Susceptibility Testing M100-S20; Approved Standard-Twentieth Edition. Wayne, Pa.: CLSI; June 2010.
(§2) The compounds of the present disclosure were tested for antimicrobial activity. The Compounds 1-23 were run against Eschericia coli (E. coli) strain ATCC25922 and against Staphylococcus aureus (S. aureus) 11540 strain using a standard microdilution assay to determine minimum inhibitory concentrations (MICs). […] It will be recognized by one skilled in the art that the compounds can be assessed against other bacterial organisms and that the presentation of data for activity against Eschericia coli and Staphylococcus aureus are illustrative and in no way is intended to limit the scope of the present disclosure. The compounds of the present disclosure can be assayed against a range of other microorganisms depending upon the performance activity desired to be gathered. Furthermore, the “+” and “−” representation and the selection of a cutoff value of 16 micrograms/mL is also illustrative and in no way is intended to limit the scope of the present disclosure.

[3] = system: Eschericia coli (E. coli) strain ATCC25922; assay: standard microdilution MIC, E. coli; type: cell-based, Escherichia coli; details: Escherichia coli
Method: as §1, §2

[4] = system: E. coli DH10B recipient; assay: CLSI broth microdilution MIC, E. coli DH10B recipient; type: cell-based
Method: (§3) Four compounds, including Compound No. 8 of the present application (RX-04D) were tested against (i) multiresistant Enterobacteriaceae and Acinetobacter with carbapenemases; (ii) Enterobacteriaceae with MCR-1; and (iii) P. aeruginosa with altered efflux (see Tables 4 and 5). In this case, MCR-1 is relevant because its activity reduces the negative charge of lipopolysaccharides, potentially affecting binding of poly-basic molecules such as the compounds tested herein, as well as polymyxins.
(§4) MICs of the four tested compounds and comparators (amikacin, cefepime, colistin, meropenem and tigecyline) were determined by CLSI broth microdilution using pre-prepared plates (Trek Diagnostic Systems) (CLSI Approved Standard M7-A10). Carbapenemase and mcr-1 genes were detected by PCR or sequencing. Efflux levels in P. aeruginosa isolates were inferred by interpretive reading of antibiogram data.

[5] = system: E. coli DH10B mcr-1 transformant; assay: CLSI broth microdilution MIC, E. coli DH10B mcr-1 transformant; type: cell-based; details: E. coli DH10B MCR-1 Transformant
Method: as §3, §4

| Compound | IC50 [1] [µM] | MIC [2] [mg/L] | MIC [3] [mg/L] | MIC [4] [mg/L] | MIC [5] [mg/L] |
| --- | --- | --- | --- | --- | --- |
| CSc1cc(-n2cc3cc(-c4cc(CCC[C@@H](N)C5CC5)cc(Cl)c4F)[nH]c3nc2=O)ccc1[C@@H]1CCC[C@@H](CCNC(=N)CN)N1CCCF [Compound 48] | 13.5 | ≤ 16 | ≤ 16 | – | – |
| CSc1cc(-n2cc3cc(-c4cc(CCC[C@H](C)N)cc(Cl)c4F)[nH]c3nc2=O)ccc1[C@@H]1CCC[C@@H](CCNC(=N)CN)N1CCCF [Compound 49] | 21.1 | ≤ 16 | ≤ 16 | – | – |
| CSc1cc(-n2cc3cc(-c4cc(CCC[C@H](C)N)cc(Cl)c4F)[nH]c3nc2=O)cc(F)c1[C@@H]1CCC[C@@H](CCNC(=N)CN)N1CCCF [Compound 50] | 10.1 | ≤ 16 | ≤ 16 | – | – |
| CSc1cc(-n2cc3cc(-c4cc(CCC[C@H](C)N)cc(C(F)(F)F)c4)[nH]c3nc2=O)cc(F)c1[C@@H]1CCC[C@@H](CCNC(=N)CN)N1CCCF [Compound 51] | > 100 | ≤ 16 | > 16 | – | – |
| CSc1cc(-n2cc3cc(-c4cc(CCC[C@@H](N)C5CC5)cc(Cl)c4F)[nH]c3nc2=O)cc(F)c1[C@@H]1CCC[C@@H](CCNC(=N)CN)N1CCCF [Compound 52] | 15.9 | ≤ 16 | ≤ 16 | – | – |
| CSc1cc(-n2cc3cc(-c4cc(CCC[C@@H](N)C5CC5)cc(C(F)(F)F)c4)[nH]c3nc2=O)ccc1[C@@H]1CCC[C@@H](CCNC(=N)CN)N1CCCF [Compound 53] | > 100 | ≤ 16 | ≤ 16 | – | – |
| CSc1cc(-n2cc3cc(-c4cc(CCC[C@@H](N)C5CC5)cc(C(F)(F)F)c4)[nH]c3nc2=O)cc(F)c1[C@@H]1CCC[C@@H](CCNC(=N)CN)N1CCCF [Compound 54] | > 100 | ≤ 16 | > 16 | – | – |
| C=C[C@H](N)CCCc1cc(-c2cc3cn(-c4ccc([C@@H]5CCC[C@@H](CCNC(=N)CN)N5CCCF)c(SC)c4)c(=O)nc3[nH]2)cc(C(F)(F)F)c1 [Compound 55] | > 100 | ≤ 16 | ≤ 16 | – | – |
| C=C[C@H](N)CCCc1cc(-c2cc3cn(-c4ccc([C@@H]5CCC[C@@H](CCNC(=N)CN)N5CCCF)cc4)c(=O)nc3[nH]2)cc(C(F)(F)F)c1 [Compound 56] | > 100 | ≤ 16 | ≤ 16 | – | – |
| C[C@H](N)CCCc1cc(Cl)c(F)c(-c2cc3cn(-c4ccc([C@@H]5CCC[C@@H](CCNC(=N)[C@@H](N)CO)N5)cc4)c(=O)nc3[nH]2)c1 [Compound 57] | > 100 | ≤ 16 | ≤ 16 | – | – |
| C[C@H](N)CCCc1cc(Cl)c(F)c(-c2cc3cn(-c4ccc([C@@H]5CCC[C@@H](CCNC(=N)[C@H](N)CO)N5)cc4)c(=O)nc3[nH]2)c1 [Compound 58] | > 100 | ≤ 16 | ≤ 16 | – | – |
| C[C@H](N)CCCc1cc(Cl)c(F)c(-c2cc3cn(-c4ccc([C@@H]5CCC[C@@H](CCNC(=N)[C@@H](C)N)N5)cc4)c(=O)nc3[nH]2)c1 [Compound 59] | > 100 | ≤ 16 | ≤ 16 | – | – |
| C[C@H](N)CCCc1cc(Cl)c(F)c(-c2cc3cn(-c4ccc([C@@H]5CCC[C@@H](CCNC(=N)[C@H](C)N)N5)cc4)c(=O)nc3[nH]2)c1 [Compound 60] | > 100 | ≤ 16 | ≤ 16 | – | – |
| C=C[C@H](N)CCCc1cc(Cl)c(F)c(-c2cc3cn(-c4ccc([C@@H]5CCC[C@@H](CCNC(=N)CN)N5CCCF)c(SC)c4)c(=O)nc3[nH]2)c1 [Compound 61] | 13.6 | ≤ 16 | ≤ 16 | – | – |
| C=C[C@H](N)CCCc1cc(-c2cc3cn(-c4cc(F)c([C@@H]5CCC[C@@H](CCNC(=N)CN)N5CCCF)c(SC)c4)c(=O)nc3[nH]2)cc(C(F)(F)F)c1 [Compound 62] | > 100 | ≤ 16 | > 16 | – | – |
| C=C[C@H](N)CCCc1cc(-c2cc3cn(-c4ccc([C@@H]5CCC[C@@H](CCNC(=N)CN)N5CCCF)c(F)c4)c(=O)nc3[nH]2)cc(C(F)(F)F)c1 [Compound 63] | > 100 | ≤ 16 | ≤ 16 | – | – |
| C=C[C@H](N)CCCc1cc(Cl)c(F)c(-c2cc3cn(-c4ccc([C@@H]5CCC[C@@H](CCNC(=N)CN)N5CCCF)cc4)c(=O)nc3[nH]2)c1 [Compound 64] | > 100 | ≤ 16 | ≤ 16 | – | – |
| C=C[C@H](N)CCCc1cc(Cl)c(F)c(-c2cc3cn(-c4cc(F)c([C@@H]5CCC[C@@H](CCNC(=N)CN)N5CCCF)c(SC)c4)c(=O)nc3[nH]2)c1 [Compound 65] | 5.2 | ≤ 16 | ≤ 16 | – | – |
| C=C[C@H](N)CCCc1cc(Cl)c(F)c(-c2cc3cn(-c4ccc([C@@H]5CCC[C@@H](CCNC(=N)CN)N5CCCF)c(F)c4)c(=O)nc3[nH]2)c1 [Compound 66] | 37.3 | ≤ 16 | ≤ 16 | – | – |
| CNCC(=N)NCC[C@@H]1CCC[C@@H](c2ccc(-n3cc4cc(-c5cc(CCC[C@H](C)N)cc(Cl)c5F)[nH]c4nc3=O)cc2)N1 [Compound 67] | > 100 | ≤ 16 | ≤ 16 | – | – |
| C[C@H](N)CCCc1cc(Cl)c(F)c(-c2cc3cn(-c4ccc([C@@H]5CCC[C@@H](CNC(=N)CN)N5)cc4)c(=O)nc3[nH]2)c1 [Compound 68] | 85.3 | ≤ 16 | ≤ 16 | – | – |
| Cc1c2cc(-c3cc(CCC[C@H](C)N)cc(Cl)c3F)[nH]c2nc(=O)n1-c1ccc([C@@H]2CCC[C@@H](CCNC(=N)CN)N2)cc1 [Compound 69] | > 100 | ≤ 16 | ≤ 16 | – | – |
| colistin [reference compound] | – | – | – | 0.25 | 4 |
